The values that follow come from patent US20250122160A1, “PROTEIN TYROSINE PHOSPHATASE INHIBITORS AND METHODS OF USE THEREOF” (Calico Life Sciences LLC, priority 0001, published 2025).

Data set [1] has as its system MC-38 murine colon adenocarcinoma. The experiment in a line: In vivo efficacy in MC38 mouse tumor model. How it is done: All experiments were conducted in compliance with AbbVie's Institutional Animal Care and Use Committee and the National Institutes of Health Guide for Care and Use of Laboratory Animals guidelines in a facility accredited by the Association for the Assessment and Accreditation of Laboratory Animal Care. C57Bl/6 female mice were obtained from Charles River (Wilmington, MA). The mice were group-housed 10 per cage. Food and water were available ad libitum. Animals were acclimated to the animal facilities for a period of at least one week prior to commencement of experiments. Animals were tested in the light phase of a 12-hour light:12-hour dark schedule (lights on 0600 hours).
Cells were grown to passage 3 in vitro. A total of 1×10^5 viable MC-38 cells were inoculated subcutaneously into the right flank of female C57Bl/6 mice (7-12 weeks old) on Day 0. […] Tumor volume was calculated three times weekly. Measurements of the length (L) and width (W) of the tumor were taken via electronic caliper and the volume was calculated according to the following equation: V=L×W^2/2 using Study Director Version 3.1.399.22 (Studylog Systems, Inc, CA, USA). […] Tumor growth inhibition (TGI) was calculated as TGI=1−(Mean TVTimepoint(Treatment)/Mean TVTimepoint(Vehicle)) for each timepoint that tumor volumes were measured. […]

Data set [2] has as its system Granzyme B+ cells within CD8+ T cells. The experiment in a line: Granzyme B staining of CD8 T cells flow cytometry assay in mouse spleen. In kind it is in vivo. Conditions: day 8 of dosing. How it is done: Mice were sacrificed on day 8 of dosing with Compound 118 (2 hours after the 16th dose) and spleens were excised. Spleens were dissociated with a gentleMACS dissociator (Miltenyi Biotec. Bergisch Gladbach. Germany), red blood cells lysed, and single cell suspensions were prepared. Splenocytes were stained with Zombie UV™ Fixable Viability kit (Biolegend. San Diego, CA) diluted in Dulbecco's PBS for 10 minutes at room temperature to exclude dead cells followed by staining for surface markers for 45 minutes on ice using the following flow cytometry antibodies diluted in autoMACS Running Buffer (Miltenyi Biotec. Bergisch Gladbach, Germany); Brilliant Violet 510)-labeled anti-CD45. Brilliant Ultraviolet 395-labeled anti-CD3. Brilliant Violet 786-labeled anti-CD4. APC/Cy7-labeled anti-CD8. Cells were washed twice with autoMACS Running Buffer, permeabilized with Fixation/Permeabilization buffer (FoxP3/Transcription Factor Staining Buffer Set; eBioscience) and stained intracellularly with PE-labeled anti-Granzyme B antibody diluted in Permeabilization buffer (FoxP3/Transcription Factor Staining Buffer Set; eBioscience, San Diego, CA) for 1 hour on ice. After staining, cells were washed twice with autoMACS Running Buffer, and the samples were acquired on a BD LSRFortessa™ X20 flow cytometers (BD Biosciences, San Jose, CA) and analyzed with FLowJo V10 software (FlowJo, Ashland, OR). […]
(Flow cytometry measures light scatter and fluorescence of single cells or particles in a stream.)

A further data set has as its system IP10. Kind of data set: Cytokine measurement in mouse plasma (IP10). In kind it is in vivo. Conditions: day 8 of dosing. How it is done:
Whole blood was drawn into EDTA powder coated tubes by cardiac puncture from mice on day 8 of dosing with Compound 118 (2 hours after the 16th dose) and plasma was prepared by centrifugation. Cytokines in plasma were measured using the Th1/Th2 Cytokine & Chemokine 20-Plex Mouse ProcartaPlex™ Panel 1 (Invitrogen, Carlsbad, CA). IP10 levels (pg/mL) in vehicle or Compound 118 treated animals were reported.

The target in data set [3] is T1, His tagged full-length PTPN1 protein (Homo sapiens, UniProt P18031).
T1 construct: made in house
T1 sequence (P18031 with tags, fused parts or gaps): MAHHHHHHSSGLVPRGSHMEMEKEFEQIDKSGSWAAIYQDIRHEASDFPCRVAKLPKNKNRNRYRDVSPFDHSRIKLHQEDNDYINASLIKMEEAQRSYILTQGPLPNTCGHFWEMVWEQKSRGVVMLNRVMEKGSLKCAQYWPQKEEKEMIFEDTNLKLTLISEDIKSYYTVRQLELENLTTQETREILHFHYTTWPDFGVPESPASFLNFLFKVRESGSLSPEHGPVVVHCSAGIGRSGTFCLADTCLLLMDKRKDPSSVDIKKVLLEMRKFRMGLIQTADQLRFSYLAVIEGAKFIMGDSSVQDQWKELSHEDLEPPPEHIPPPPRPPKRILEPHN
The experiment in a line: Mobility shift assay (MSA) to determine potency of PTPN1 inhibitors. The conditions noted are these: 0.5 nM enzyme, 2 μM substrate. The data set is classed as biochemical. In short, it runs like this: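 His-tagged full-length human PTPN1 (0.5 nM) preincubated with compound 10 min at room temperature in pH 7.5 HEPES buffer with EGTA, EDTA, Tween 20 and DTT. Dephosphorylation of 2 μM fluorescent phospho-insulin-receptor peptide over 10 min measured by mobility shift. IC50 from % inhibition across a 12-point, 1:3 dilution series.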

A further data set relates to pSTAT5 in CD3+ T cells. Kind of data set: pSTAT5 flow cytometry assay in mouse whole blood. In kind it is in vivo. The conditions noted are these: day 8 of dosing. How it is done:
Whole blood was drawn into EDTA powder coated tubes by cardiac puncture from mice on day 8 of dosing with Compound 118 (2 hours after the 16th dose). 90 μL of whole blood were stimulated with 10 μL of murine IL-2 to achieve a final concentration of 100 ng IL-2/mL (R&D Systems. Minneapolis, MN, cat #402-ML) for 20 minutes at 37° C. 5% CO2. After stimulation. 1.8 mL of prewarmed BD Phosflow Lyse/Fix Buffer (BD Biosciences. San Jose. CA) was added for 20 minutes at 37° C. Cells were washed twice in FACS buffer (Dulbecco's PBS with 0.2% BSA) and incubated for 30 minutes on ice in cold Perm Buffer III (BD Biosciences. San Jose. CA). Cells were washed with FACS buffer and resuspended in 50 μL of FACS buffer with antibodies and stained for 3 hours at room temperature with gentle shaking. […] After staining, cells were washed twice with FACS buffer, and the samples were acquired on a BD LSRFortessa™ X20 flow cytometers (BD Biosciences. San Jose, CA) and analyzed with FLowJo V10 software (FlowJo, Ashland, OR). The mean fluorescence intensity (MFI) of pSTAT5 as a measure of the amount of phosphorylated STAT5 in the CD3+ T cell population from vehicle or Compound 118 treated animals was reported.

For data set [4], the target named is T2, His tagged PTPN2 (TC45) protein (Homo sapiens, UniProt P17706).
T2 construct: made in house
T2 sequence (P17706 with tags, fused parts or gaps isoform P17706-2): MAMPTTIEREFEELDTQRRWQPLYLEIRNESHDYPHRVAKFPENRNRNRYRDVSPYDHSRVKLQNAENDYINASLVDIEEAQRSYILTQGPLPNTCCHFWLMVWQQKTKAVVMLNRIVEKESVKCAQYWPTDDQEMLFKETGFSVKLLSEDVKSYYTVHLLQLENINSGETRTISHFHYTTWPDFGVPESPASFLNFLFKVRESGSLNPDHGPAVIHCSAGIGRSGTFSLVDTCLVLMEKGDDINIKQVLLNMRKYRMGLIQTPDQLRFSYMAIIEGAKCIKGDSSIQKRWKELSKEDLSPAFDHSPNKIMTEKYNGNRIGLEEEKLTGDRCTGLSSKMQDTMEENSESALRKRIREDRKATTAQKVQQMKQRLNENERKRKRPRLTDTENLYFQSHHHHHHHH
The experiment in a line: Mobility shift assay (MSA) to determine potency of PTPN2 inhibitors. Conditions: 0.5 nM enzyme, 2 μM substrate. In kind it is biochemical. In short, it runs like this:
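His-tagged human PTPN2 (TC45), 0.5 nM, preincubated 10 min at room temperature with compound (12-point, 1:3 dilutions) in HEPES pH 7.5 buffer with EGTA, EDTA, Tween 20 and DTT. Then 2 μM OG488-labelled phospho-insulin-receptor peptide was added for 10 min and quenched. % conversion was read by mobility shift, and IC50 came from % inhibition.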

For data set [5], the system named is B16F10 mouse melanoma cells. The experiment in a line: B16F10 IFNγ-induced cellular growth inhibition assay. The data set is classed as cell-based. The conditions noted are these: B16-F10, with 0.5 ng/ml IFNγ, read-out: B16F10 GI IC50. How it is done:
B16F10 mouse melanoma cells (ATCC Cat #CRL-6475, Manassas, VA) were seeded at a density of 500 cells per well in a 384-well clear bottom plate (Corning Cat #3765, Corning, NY) in 25 μL total volume of DMEM+10% FBS (Sigma Cat #D6429 and Sigma Cat #F4135, St. Louis, MO). Cells were allowed to adhere overnight at 37° C.+5% CO2. On the following day, 12.5 μL of mouse IFNγ (RD systems Cat #485-MI/CF, Minneapolis, MN) was added to half of the plate (columns 13-24) at a concentration of 2 ng/ml for a final assay concentration of 0.5 ng/ml of IFNγ. Media only (12.5 μL of DMEM+10% FBS) was added to the remainder of the plate (columns 1-12). Next, compounds resuspended in DMSO (Sigma Cat #D2650) at 100 mM were diluted in semi-log dilutions in DMSO ranging from 100 mM to 0.001 mM and DMSO only controls were included. The compound/DMSO dilutions were further diluted 1:250 in DMEM+10% FBS, and 12.5 μL of these dilutions were added in triplicates to cells of both treatment arms (with and without IFNγ). Final compound concentrations ranged from 100 μM to 0.001 μM with a final DMSO concentration of 0.1%. […] Confluence over time for compound dilutions in the presence and absence of IFNγ was measured. […] At these time points, for each compound the percent growth inhibition at every compound dose level was calculated relative to the “DMSO/with IFNγ” control and used to determine the IC50.

A word on the IC50: it is the concentration that gives 50% inhibition.

Take `CC(C)CCN[C@@H]1CCc2cc(O)c(N3CC(=O)NS3(=O)=O)c(F)c2C1` (single isomer, unassigned) [Compound 118]: the tolerability entry in data set [1] (10 mg/kg/dose oral BID for 21 days) is “well tolerated, without obvious adverse health events”. The tumor response observed entry in data set [1] (within 7-10 days of treatment) was “apparent tumor stasis and shrinkage”. Moreover, the “frequency of granzyme B producing cells within CD8+ T population in spleen, fold higher than vehicle control” value in data set [2] is listed as 3.9 fold. Besides, the “IP10 levels in plasma, fold higher than vehicle control” value in the data set on IP10 amounted to 1.7 fold. For the same compound, the concentration for half-maximal inhibition (IC50) in data set [3] lay within 1 to 10 nM. In the data set with pSTAT5 in CD3+ T cells, the “pSTAT5 levels in whole blood T cells, fold higher than vehicle control” value was 1.6 fold.
Take `CC(C)(C)O[C@H]1C[C@@H](CCNC2CCc3cc(O)c(N4CC(=O)NS4(=O)=O)c(F)c3C2)C1` (some centres unmarked) [Compound 234]: the IC50 in data set [4] fell in the range of 10 to 100 nM; in data set [3] it was 1 to 10 nM; in data set [5], 1 to 10 µM.
As to `CC(C)CCN[C@@H]1CCc2cc(O)c(N3CC(=O)NS3(=O)=O)c(F)c2[C@H]1O` [Compound 406, 5-{(7R,8R)-1-fluoro-3,8-dihydroxy-7-[(3-methylbutyl)amino]-5,6,7,8-tetrahydronaphthalen-2-yl}-1λ^6,2,5-thiadiazolidine-1,1,3-trione], the values for the half-maximal inhibitory concentration (IC50) in data set [4] and in data set [3] were 10 to 100 nM and above 100 nM, respectively.
For the compound `NCC(F)(F)CCCN[C@@H]1CCc2cc(O)c(N3CC(=O)NS3(=O)=O)c(F)c2C1` [Compound 409, 5-{(7R)-7-[(5-amino-4,4-difluoropentyl)amino]-1-fluoro-3-hydroxy-5,6,7,8-tetrahydronaphthalen-2-yl}-1λ^6,2,5-thiadiazolidine-1,1,3-trione], the IC50 in data set [4] and in data set [3] was 1 to 10 nM throughout.
Take `CCCCN[C@@H]1CCc2cc(O)c(N3CC(=O)NS3(=O)=O)c(F)c2C1` [Compound 410, 5-[(7R)-7-(butylamino)-1-fluoro-3-hydroxy-5,6,7,8-tetrahydronaphthalen-2-yl]-1λ^6,2,5-thiadiazolidine-1,1,3-trione]: the 50% inhibitory concentration (IC50) in data set [4] and in data set [3] was 1 to 10 nM throughout.
Turning to `CC(C)CCN[C@H]1Cc2c(cc(O)c(N3CC(=O)NS3(=O)=O)c2F)C[C@@H]1O` [Compound 411, 5-{(6S,7S)-1-fluoro-3,6-dihydroxy-7-[(3-methylbutyl)amino]-5,6,7,8-tetrahydronaphthalen-2-yl}-1λ^6,2,5-thiadiazolidine-1,1,3-trione], the IC50 in data set [4] is below 1 nM; in data set [3], 1 to 10 nM.
